Data on 2 molecules can be found in patent US20190275097A1, “Lycopene from Momordica Cochinchinnensis Spreng., methods and formulations” (priority 2018, published 2019).

Series [1] relates to caco cell. Description: Bioaccessibility studies using in-vitro digestion/caco cell techniques. Type of series: in vitro ADME. To be noted: carotenoids from Gac pulp. The source says:
The good absorption and transport of carotenoids after gac pulp consumption are probably due to its soft texture and to these high levels of fatty acids. […] This is in sharp contrast to other carotenoid rich fruits, which show a relatively low carotenoid bioavailability due to the lack of uptake enhancing lipids.

The conditions of series [2]: Gac pulp consumed alone, 30-day feeding trial; cited from earlier work.

Turning to `CC1=C(/C=C/C(C)=C/C=C/C(C)=C/C=C/C=C(C)/C=C/C=C(C)/C=C/C2=C(C)CCCC2(C)C)C(C)(C)CCC1` [beta-carotene], the “bioavailability (bioaccessibility), in-vitro digestion/caco cell” value in series [1] is “high bioavailability”. Also, the “bioavailability: change in the human circulation after feeding trial” value in series [2] is given as “significant increase”.
For the molecule `CC(C)=CCC/C(C)=C/C=C/C(C)=C/C=C/C(C)=C/C=C/C=C(C)/C=C/C=C(C)/C=C/C=C(\C)CCC=C(C)C` [lycopene], the “bioavailability (bioaccessibility), in-vitro digestion/caco cell” value in series [1] is reported as “high bioavailability”. In series [2], the “bioavailability: change in the human circulation after feeding trial” value is given as “significant increase”.
